In USRE46630E1, “Substituted 4-pyridones and their use as inhibitors of neutrophil elastase activity” (Boehringer Ingelheim International GmbH, priority 2012, dated 2017):

biological target: T1, Human neutrophil elastase (Homo sapiens, UniProt P08246); test: Human Neutrophil Elastase Assay; type: biochemical; details: Neutrophil Elastase assay; substrate MeOSuc-Ala-Ala-Pro-Val-AMC 250 μM; 15 min preincubation, 60 min incubation at room temperature; pH 7.5
T1 construct: purchased Calbiochem 324681
T1 sequence (P08246 30-267): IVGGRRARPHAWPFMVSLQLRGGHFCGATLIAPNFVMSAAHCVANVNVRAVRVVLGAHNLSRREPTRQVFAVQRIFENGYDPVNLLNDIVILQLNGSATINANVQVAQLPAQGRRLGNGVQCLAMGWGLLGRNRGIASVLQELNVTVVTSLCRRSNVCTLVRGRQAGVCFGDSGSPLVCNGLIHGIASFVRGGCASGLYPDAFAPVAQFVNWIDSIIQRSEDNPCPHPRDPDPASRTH
How it was run: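 Run in 100 mM Tris, 500 mM NaCl, pH 7.5 with 0.01% BSA, with compounds prediluted in DMSO then buffer (5% DMSO final). Fluorescence was read at 380 nm excitation/460 nm emission after enzyme inactivation. Values were normalised to inactivated-enzyme (0%) and uninhibited-enzyme (100%) controls.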

IC50 [nM]	SMILES
12	Cc1c(-c2ccnc(C(F)(F)F)c2)c(=O)c(C(=O)NCC(C)O)cn1C(C)c1ccc(C#N)cc1 (stereo not drawn) [Example 9.62]
37.5	Cc1c(-c2ccnc(C(F)(F)F)c2)c(=O)c(C(=O)NCC(C)(C)O)cn1C(C)c1ccc(C#N)cc1 (stereo not drawn) [Example 9.63]
35.9	Cc1c(-c2cccc(C(F)(F)F)c2)c(=O)c(C(=O)NCC[N+](C)(C)C)cn1Cc1ccc(C#N)cc1 [Example 12.1, (2-{[1-(4-Cyano-benzyl)-6-methyl-4-oxo-5-(3-trifluoromethyl-phenyl)-1,4-dihydro-pyridine-3-carbonyl]-amino}-ethyl)-trimethyl-ammonium chloride]
49.5	Cc1c(-c2cccc(C(F)(F)F)c2)c(=O)c(C(=O)NCCC[N+](C)(C)C)cn1Cc1ccc(C#N)cc1 [Example 12.2, (3-{[1-(4-Cyano-benzyl)-6-methyl-4-oxo-5-(3-trifluoromethyl-phenyl)-1,4-dihydro-pyridine-3-carbonyl]-amino}-propyl)-trimethyl-ammonium chloride]
59.7	Cc1c(-c2cccc(C(F)(F)F)c2)c(=O)c(C(=O)NCC2CC[N+](C)(C)CC2)cn1Cc1ccc(C#N)cc1 [Example 12.3, 4-({[1-(4-Cyano-benzyl)-6-methyl-4-oxo-5-(3-trifluoromethyl-phenyl)-1,4-dihydro-pyridine-3-carbonyl]-amino}-methyl)-1,1-dimethyl-piperidinium chloride]
14.4	Cc1c(-c2cccc(C(F)(F)F)c2)c(=O)c(C(=O)NCC2CCN(C(=O)C[N+](C)(C)C)CC2)cn1Cc1ccc(C#N)cc1 [Example 12.4, {2-[4-({[1-(4-Cyano-benzyl)-6-methyl-4-oxo-5-(3-trifluoromethyl-phenyl)-1,4-dihydro-pyridine-3-carbonyl]-amino}-methyl)-piperidin-1-yl]-2-oxo-ethyl}-trimethyl-ammonium chloride]
6.6	CS(=O)(=O)c1ccc(CNC(=O)c2cn(Cc3ccc(C#N)cc3)cc(-c3cccc(C(F)(F)F)c3)c2=O)cc1 [Example 13.1, 1-(4-Cyano-benzyl)-4-oxo-5-(3-trifluoromethyl-phenyl)-1,4-dihydro-pyridine-3-carboxylic acid 4-methanesulfonyl-benzylamide]
5.2	CS(=O)(=O)c1ccc(CNC(=O)c2cn(Cc3ccc(C#N)cc3)cc(-c3cccc(C(F)(F)F)c3)c2=O)nc1 [Example 13.2, 1-(4-Cyano-benzyl)-4-oxo-5-(3-trifluoromethyl-phenyl)-1,4-dihydro-pyridine-3-carboxylic acid (5-methanesulfonyl-pyridin-2-ylmethyl)-amide]

Second part, the compound before the results:

SMILES	IC50 [nM]
Cc1c(-c2cccc(C(F)(F)F)c2)c(=O)c(C(=O)NCc2ccc(S(C)(=O)=O)c[n+]2[O-])cn1Cc1ccc(C#N)cc1 [Example 14, Pyridin-N-oxide of example 4.1]	< 1
CNC(=O)c1cn(C(C)c2ccc(C#N)cn2)c(C)c(-c2cccc(C(F)F)c2)c1=O (stereo not drawn) [Example 16, 1-[1-(5-Cyano-pyridin-2-yl)-ethyl]-5-(3-difluoromethyl-phenyl)-6-methyl-4-oxo-1,4-dihydro-pyridine-3-carboxylic acid methylamide]	9.9
CCNC(=O)c1cn(C(C)c2ccc(C#N)cn2)c(C)c(-c2cccc(C(F)(F)F)c2)c1=O (stereo not drawn) [Example 17, 1-[1-(5-Cyano-pyridin-2-yl)-ethyl]-6-methyl-4-oxo-5-(3-trifluoromethyl-phenyl)-1,4-dihydro-pyridine-3-carboxylic acid ethylamide]	4.5
CCNC(=O)c1cn(C(C)c2ccc(C#N)cn2)c(C)c(-c2cccc(C(F)F)c2)c1=O (stereo not drawn) [Example 18, 1-[1-(5-Cyano-pyridin-2-yl)-ethyl]-5-(3-difluoromethyl-phenyl)-6-methyl-4-oxo-1,4-dihydro-pyridine-3-carboxylic acid ethylamide]	5.4
CCNC(=O)c1cn(C(C)c2ccc(C#N)cn2)c(C)c(-c2ccnc(C(F)(F)F)c2)c1=O (stereo not drawn) [Example 19, 1-[1-(5-Cyano-pyridin-2-yl)-ethyl]-2-methyl-4-oxo-2′-trifluoromethyl-1,4-dihydro-[3,4′]bipyridinyl-5-carboxylic acid ethylamide]	22.2
CNC(=O)c1cn(Cc2ccc(C#N)cc2S(C)(=O)=O)c(C)c(-c2cccc(C(F)(F)F)c2)c1=O [Example 20]	8.6
CCNC(=O)c1cn(Cc2ccc(C#N)cc2S(C)(=O)=O)c(C)c(-c2cccc(C(F)(F)F)c2)c1=O [Example 21]	4.6
Cc1nnc(CNC(=O)c2cn(Cc3ccc(C#N)cc3S(C)(=O)=O)c(C)c(-c3cccc(C(F)(F)F)c3)c2=O)o1 [Example 22]	2.8
Cc1c(-c2cccc(C(F)(F)F)c2)c(=O)c(C(=O)NCCCO)cn1Cc1ccc(C#N)cc1S(C)(=O)=O [Example 23]	4.4
Cc1noc(CNC(=O)c2cn(Cc3ccc(C#N)cc3S(C)(=O)=O)c(C)c(-c3cccc(C(F)(F)F)c3)c2=O)n1 [Example 24]	4.8
CCCS(=O)(=O)c1cc(C#N)ccc1Cn1cc(C(=O)NC)c(=O)c(-c2cccc(C(F)(F)F)c2)c1C [Example 25, 1-[4-Cyano-2-(propane-1-sulfonyl)-benzyl]-6-methyl-4-oxo-5-(3-trifluoromethyl-phenyl)-1,4-dihydro-pyridine-3-carboxylic acid methylamide]	14
CCS(=O)(=O)c1cc(C#N)ccc1Cn1cc(C(=O)NC)c(=O)c(-c2cccc(C(F)(F)F)c2)c1C [Example 26]	10.8
CNC(=O)c1cn(Cc2ccc(C#N)cc2S(=O)(=O)C2CC2)c(C)c(-c2cccc(C(F)(F)F)c2)c1=O [Example 27]	8.1
CNC(=O)c1cn(C(C)c2ccc(C#N)cc2)c(C)c(-c2ccc(F)c(C(F)F)c2)c1=O (stereo not drawn) [Example 28]	13.3
CNC(=O)c1cn(C(C)c2ccc(C#N)cc2)c(C)c(-c2cccc(C)c2)c1=O (stereo not drawn) [Example 29]	14.4
CNC(=O)c1cn(C(C)c2ccc(C#N)cc2)c(C)c(-c2ccc(F)c(C(F)(F)F)c2)c1=O (stereo not drawn) [Example 30]	5.3
CNC(=O)c1cn(C(C)c2ccc(C#N)cc2)c(C)c(-c2cccc(CF)c2)c1=O (stereo not drawn) [Example 31, 1-[1-(4-Cyano-phenyl)-ethyl]-5-(3-fluoromethyl-phenyl)-6-methyl-4-oxo-1,4-dihydro-pyridine-3-carboxylic acid methylamide]	7.8
CNC(=O)c1cn(Cc2ccc(C#N)cc2F)c(C)c(-c2cccc(C(F)F)c2)c1=O [Example 32]	11.8
CNC(=O)c1cn(Cc2ccc(C#N)c(F)c2)c(C)c(-c2cccc(C(F)F)c2)c1=O [Example 33]	14
CNC(=O)c1cn(Cc2ccc(C#N)cn2)c(C)c(-c2cccc(C(F)F)c2)c1=O [Example 34]	31.2
CCNC(=O)c1cn(C(CC)c2ccc(C#N)cc2)c(C)c(-c2cccc(C(F)(F)F)c2)c1=O (stereo not drawn) [Example 35, 1-[1-(4-Cyano-phenyl)-propyl]-6-methyl-4-oxo-5-(3-trifluoromethyl-phenyl)-1,4-dihydro-pyridine-3-carboxylic acid ethylamide]	7.8
CCC(c1ccc(C#N)cc1)n1cc(C(=O)NC)c(=O)c(-c2ccnc(C(F)(F)F)c2)c1C (stereo not drawn) [Example 36, 1-[1-(4-Cyano-phenyl)-propyl]-2-methyl-4-oxo-2′-trifluoromethyl-1,4-dihydro-[3,4′]bipyridinyl-5-carboxylic acid methylamide]	18.4
